Laboratory results reported in patent publication US12528814B2, “Bifunctional degraders of interleukin-1 receptor-associated kinases and therapeutic use thereof” (NURIX THERAPEUTICS, INC., priority 2020, dated 2026).
pIC50: −log10 of the molar value. Where two headings read alike, the source gives them in different places.

Legend:
IRAK4 [1] = biological target: T1, IRAK4 (Homo sapiens (Human), UniProt Q9NWZ3); experiment: IRAK4 Biochemical HTRF Kinase Assay; conditions: read-out: IRAK4 HTRF biochemical: IC50
How it was run: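 HTRF KinEASE STK S1 format measuring IRAK4 phosphorylation of biotinylated peptide; reaction solution of 5 μM STK-S1, 10 mM ATP, 10 mM MgCl2 added (stock, to 10 μl final), 90 min at ambient temperature, detection 60 min. IC50 from sixteen-point duplicate curves by non-linear regression.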
Target sequence in this assay (Q9NWZ3 whole entry, species assumed): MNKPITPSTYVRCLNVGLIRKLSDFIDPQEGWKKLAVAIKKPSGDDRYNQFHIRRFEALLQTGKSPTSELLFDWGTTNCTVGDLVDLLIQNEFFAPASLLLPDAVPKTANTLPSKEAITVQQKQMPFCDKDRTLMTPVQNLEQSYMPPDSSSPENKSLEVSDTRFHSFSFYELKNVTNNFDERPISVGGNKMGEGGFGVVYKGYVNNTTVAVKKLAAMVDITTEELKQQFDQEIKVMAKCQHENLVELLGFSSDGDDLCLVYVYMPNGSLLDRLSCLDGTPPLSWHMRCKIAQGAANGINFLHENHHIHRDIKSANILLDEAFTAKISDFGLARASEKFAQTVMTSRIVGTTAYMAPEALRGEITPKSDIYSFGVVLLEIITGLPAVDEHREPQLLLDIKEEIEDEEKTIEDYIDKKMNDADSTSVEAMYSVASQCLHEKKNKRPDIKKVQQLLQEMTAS

IRAK4 [2] = biological target: T1, IRAK4; experiment: IRAK4 Degradation HiBiT Assay; conditions: HiBiT-tagged Jurkat cells, 4 hrs; for Dmax: Jurkat; for DC50: read-out: Cellular IRAK4 HiBiT: DC50
Target sequence in this assay (Q9NWZ3 whole entry): as the sequence (Q9NWZ3 whole entry, species assumed) above

[3] = read-out: Cellular IRAK4 HiBiT: Dmax, Table 5, multiple runs
[4] = read-out: Cellular IRAK4 HiBiT: Dmax, Table 4

Work on `CNc1cc(-c2ccc3cc(C#N)cnn23)ncc1-c1nnc(N2CCCC3(CN(C(=O)C[C@H](NC(=O)[C@@H]4C[C@@H](O)CN4C(=O)[C@@H](NC(=O)C4(F)CC4)C(C)(C)C)c4ccc(-c5scnc5C)cc4)C3)C2)s1` [Example 150, (2S,4R)—N—((S)-3-(6-(5-(6-(3-cyanopyrrolo[1,2-b]pyridazin-7-yl)-4-(methylamino)pyridin-3-yl)-1,3,4-thiadiazol-2-yl)-2,6-diazaspiro[3.5]nonan-2-yl)-1-(4-(4-methylthiazol-5-yl)phenyl)-3-oxopropyl)-1-((S)-2-(1-fluorocyclopropane-1-carboxamido)-3,3-dimethylbutanoyl)-4-hydroxypyrrolidine-2-carboxamide] yielded a pIC50 (IRAK4 [1]; Table 5, multiple runs) of 8.26, a Dmax (IRAK4 [2]; [3]) of 113% and a DC50 (IRAK4 [2]; Table 5, multiple runs) of 441 nM.
For `CNc1cc(-c2ccc3cc(C#N)cnn23)ncc1-c1nnc(C23CCC(NC(=O)CCOCCNc4cccc5c4C(=O)N(C4CCC(=O)NC4=O)C5=O)(CC2)CC3)s1` (centres unmarked) [Example 111, N-(4-(5-(6-(3-cyanopyrrolo[1,2-b]pyridazin-7-yl)-4-(methylamino)pyridin-3-yl)-1,3,4-thiadiazol-2-yl)bicyclo[2.2.2]octan-1-yl)-3-(2-((2-(2,6-dioxopiperidin-3-yl)-1,3-dioxoisoindolin-4-yl)amino)ethoxy)propenamide], the pIC50 (IRAK4 [1]; Table 5, multiple runs) was 8.96, the Dmax (IRAK4 [2]; [3]) was 59% and the DC50 (IRAK4 [2]; Table 5, multiple runs) was 15.8 nM.
`CNc1cc(-c2ccc3cc(C#N)cnn23)ncc1-c1nnc([C@H]2CC[C@H](N(C)C(=O)CN3CCN(c4ccc5c(c4)C(=O)N(C4CCC(=O)NC4=O)C5=O)CC3)CC2)s1` (some centres unmarked) [Example 137, N-((1r,4r)-4-(5-(6-(3-cyanopyrrolo[1,2-b]pyridazin-7-yl)-4-(methylamino)pyridin-3-yl)-1,3,4-thiadiazol-2-yl)cyclohexyl)-2-(4-(2-(2,6-dioxopiperidin-3-yl)-1,3-dioxoisoindolin-5-yl)piperazin-1-yl)-N-methylacetamide] showed a pIC50 (IRAK4 [1]; Table 5, multiple runs) of 7.65, a Dmax (IRAK4 [2]; [3]) of 108% and a DC50 (IRAK4 [2]; Table 5, multiple runs) of 19.1 nM.
In the case of `CNc1cc(-c2ccc3cc(C#N)cnn23)ncc1-c1nnc([C@H]2CC[C@H](NC(=O)CCOCCOCCOCCNc3cccc4c3C(=O)N(C3CCC(=O)NC3=O)C4=O)CC2)s1` (some centres unmarked) [Example 70, N-((1r,4r)-4-(5-(6-(3-cyanopyrrolo[1,2-b]pyridazin-7-yl)-4-(methylamino)pyridin-3-yl)-1,3,4-thiadiazol-2-yl)cyclohexyl)-3-(2-(2-(2-((2-(2,6-dioxopiperidin-3-yl)-1,3-dioxoisoindolin-4-yl)amino)ethoxy)ethoxy)ethoxy)propenamide], the pIC50 (IRAK4 [1]; Table 4) was 9.07, the pIC50 (IRAK4 [1]; Table 5, multiple runs) was 9.10 and the Dmax (IRAK4 [2]; [4]) was 68%. It also gave a Dmax (IRAK4 [2]; [3]) of 100%, a DC50 (IRAK4 [2]; Table 4) of 6.3 nM and a DC50 (IRAK4 [2]; Table 5, multiple runs) of 10.8 nM.
`CNc1cc(-c2ccc3cc(C#N)cnn23)ncc1-c1nnc(C23CCC(NC(=O)CN4CCN(c5ccc6c(c5)C(=O)N(C5CCC(=O)NC5=O)C6=O)CC4)(CC2)CC3)s1` (centres unmarked) [Example 105, N-(4-(5-(6-(3-cyanopyrrolo[1,2-b]pyridazin-7-yl)-4-(methylamino)pyridin-3-yl)-1,3,4-thiadiazol-2-yl)bicyclo[2.2.2]octan-1-yl)-2-(4-(2-(2,6-dioxopiperidin-3-yl)-1,3-dioxoisoindolin-5-yl)piperazin-1-yl)acetamide] showed a pIC50 (IRAK4 [1]; Table 5, multiple runs) of 8.92, a Dmax (IRAK4 [2]; [3]) of 106% and a DC50 (IRAK4 [2]; Table 5, multiple runs) of 39.8 nM.
Molecule `CNc1cc(-c2ccc3cc(C#N)cnn23)ncc1-c1nnc([C@H]2CC[C@H](NC[C@@H]3CCN(c4ccc5c(c4)C(=O)N(C4CCC(=O)NC4=O)C5=O)C3)CC2)s1` (stereo partly drawn) [Example 153, 7-(5-(5-((1S,4r)-4-((((3S)-1-(2-(2,6-dioxopiperidin-3-yl)-1,3-dioxoisoindolin-5-yl)pyrrolidin-3-yl)methyl)amino)cyclohexyl)-1,3,4-thiadiazol-2-yl)-4-(methylamino)pyridin-2-yl)pyrrolo[1,2-b]pyridazine-3-carbonitrile] has a pIC50 (IRAK4 [1]; Table 5, multiple runs) of 9.30, a Dmax (IRAK4 [2]; [3]) of 68% and a DC50 (IRAK4 [2]; Table 5, multiple runs) of 54.8 nM.
With `CNc1cc(-c2ccc3cc(C#N)cnn23)ncc1-c1nnc([C@H]2CC[C@@H](NC(=O)C3CCN(c4cccc5c4C(=O)N(C4CCC(=O)NC4=O)C5=O)CC3)CC2)s1` (some centres unmarked) [Example 135, N-((1s,4s)-4-(5-(6-(3-cyanopyrrolo[1,2-b]pyridazin-7-yl)-4-(methylamino)pyridin-3-yl)-1,3,4-thiadiazol-2-yl)cyclohexyl)-1-(2-(2,6-dioxopiperidin-3-yl)-1,3-dioxoisoindolin-4-yl)piperidine-4-carboxamide] the pIC50 (IRAK4 [1]; Table 5, multiple runs) was 9.00, the Dmax (IRAK4 [2]; [3]) was 46% and the DC50 (IRAK4 [2]; Table 5, multiple runs) was 774 nM.
`Cc1ncsc1-c1ccc([C@H](C)NC(=O)[C@@H]2C[C@@H](O)CN2C(=O)[C@@H](NC(=O)CCOCCOCCOCCC(=O)N2CCN(c3nnc(-c4cnc(-c5ccc6cc(C#N)cnn56)cc4NC(C)C)s3)CC2)C(C)(C)C)cc1` [Example 78, (2S,4R)-1-((S)-2-(tert-butyl)-16-(4-(5-(6-(3-cyanopyrrolo[1,2-b]pyridazin-7-yl)-4-(isopropylamino)pyridin-3-yl)-1,3,4-thiadiazol-2-yl)piperazin-1-yl)-4,16-dioxo-7,10,13-trioxa-3-azahexadecanoyl)-4-hydroxy-N—((S)-1-(4-(4-methylthiazol-5-yl)phenyl)ethyl)pyrrolidine-2-carboxamide] showed a pIC50 (IRAK4 [1]; Table 5, multiple runs) of 8.62, a Dmax (IRAK4 [2]; [3]) of 74% and a DC50 (IRAK4 [2]; Table 5, multiple runs) of 332 nM.
Molecule `CNc1cc(-c2ccc3cc(C#N)cnn23)ncc1-c1nnc([C@H]2CC[C@H](NC(=O)CN3CCN(c4ccc5c(c4)C(=O)N(C4CCC(=O)NC4=O)C5=O)CC3)CC2)s1` (some centres unmarked) [Example 65, N-((1r,4r)-4-(5-(6-(3-cyanopyrrolo[1,2-b]pyridazin-7-yl)-4-(methylamino)pyridin-3-yl)-1,3,4-thiadiazol-2-yl)cyclohexyl)-2-(4-(2-(2,6-dioxopiperidin-3-yl)-1,3-dioxoisoindolin-5-yl)piperazin-1-yl)acetamide] has a pIC50 (IRAK4 [1]; Table 4) of 9.02, a pIC50 (IRAK4 [1]; Table 5, multiple runs) of 9.10 and a Dmax (IRAK4 [2]; [4]) of 109%. The Dmax (IRAK4 [2]; [3]) was 111%, the DC50 (IRAK4 [2]; Table 4) was 5.1 nM and the DC50 (IRAK4 [2]; Table 5, multiple runs) was 16.9 nM.
`CNc1cc(-c2ccc3cc(C#N)cnn23)ncc1-c1nnc([C@H]2CC[C@H](NC(=O)CN3CCN(c4ccc5c(c4)C(=O)N(C4CCC(=O)N(C)C4=O)C5=O)CC3)CC2)s1` (some centres unmarked) [Example 148, N-((1r,4r)-4-(5-(6-(3-cyanopyrrolo[1,2-b]pyridazin-7-yl)-4-(methylamino)pyridin-3-yl)-1,3,4-thiadiazol-2-yl)cyclohexyl)-2-(4-(2-(1-methyl-2,6-dioxopiperidin-3-yl)-1,3-dioxoisoindolin-5-yl)piperazin-1-yl)acetamide] was tested, and the pIC50 (IRAK4 [1]; Table 5, multiple runs) was 8.85 and the DC50 (IRAK4 [2]; Table 5, multiple runs) was over 9980 nM.
With `CNc1cc(-c2ccc3cc(C#N)cnn23)ncc1-c1nnc(C23CCC(NC(=O)[C@H]4C[C@H]4C(=O)N[C@H](C(=O)N4C[C@H](O)C[C@H]4C(=O)N[C@@H](C)c4ccc(-c5scnc5C)cc4)C(C)(C)C)(CC2)CC3)s1` (mixture of isomers) [Example 142, (1RS,2SR)—N1-(4-(5-(6-(3-cyanopyrrolo[1,2-b]pyridazin-7-yl)-4-(methylamino)pyridin-3-yl)-1,3,4-thiadiazol-2-yl)bicyclo[2.2.2]octan-1-yl)-N2—((S)-1-((2S,4R)-4-hydroxy-2-(((S)-1-(4-(4-methylthiazol-5-yl)phenyl)ethyl)carbamoyl)pyrrolidin-1-yl)-3,3-dimethyl-1-oxobutan-2-yl)cyclopropane-1,2-dicarboxamide] the pIC50 (IRAK4 [1]; Table 5, multiple runs) was 8.72, the Dmax (IRAK4 [2]; [3]) was 115% and the DC50 (IRAK4 [2]; Table 5, multiple runs) was 258 nM.
